Assay results: patent publication US6737383B1, “Herbicidal oxadiazolidines” (priority 1999, dated 2004)

What was measured:
cocklebur = experiment: Test B pre/postemergence cocklebur; type: in vivo, Xanthium strumarium
How it was run: (§1)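 Test chemicals in a non-phytotoxic solvent mixture with surfactant were sprayed preemergence onto planted seeds and postemergence onto plants 2 to 18 cm tall (1- to 4-leaf stage). After twelve to sixteen days in a greenhouse, injury was visually rated against untreated controls from 0 (no effect) to 10 (complete control).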

crabgrass = experiment: Test B pre/postemergence crabgrass; type: in vivo, Digitaria sanguinalis
How it was run: as §1

wheat = experiment: Test B pre/postemergence wheat; type: in vivo, Triticum aestivum
How it was run: as §1

wild oat = experiment: Test B pre/postemergence wild oat; type: in vivo, Avena fatua
How it was run: as §1

[1] = Postemergence, Rate 62 g/ha, scale 0 to 10, 0 is no effect, 10 is complete control
[2] = Postemergence, Rate 125 g/ha, scale of 0 to 10 where 0 is no effect and 10 is complete control
[3] = Postemergence, Rate 250 g/ha, scale of 0 to 10, 0 is no effect, 10 is complete control
[4] = Postemergence, Rate 500 g/ha, scale of 0 to 10 where 0 is no effect and 10 is complete control
[5] = Preemergence, Rate 62 g/ha, scale of 0 to 10 where 0 is no effect and 10 is complete control
[6] = Preemergence, Rate 125 g/ha, scale of 0 to 10 where 0 is no effect and 10 is complete control
[7] = Preemergence, Rate 250 g/ha, scale 0 to 10 (0 no effect, 10 complete control)
[8] = Preemergence, Rate 500 g/ha, scale of 0 to 10 where 0 is no effect and 10 is complete control
[9] = Rate 500 g/ha, Postemergence, scale 0 to 10, 0 is no effect, 10 is complete control

Row | Compound | Plant response rating, Cocklebur (cocklebur; [1]) | Cocklebur plant response rating (cocklebur; [2]) | Cocklebur plant response rating (cocklebur; [3]) | Cocklebur plant response rating (cocklebur; [5]) | Cocklebur plant response rating (cocklebur; [6]) | Plant response rating, Cocklebur (cocklebur; [7]) | Plant response rating, Cocklebur (cocklebur; [8]) | Plant response rating, Crabgrass (crabgrass; [1]) | Crabgrass plant response rating (crabgrass; [2]) | Crabgrass plant response rating (crabgrass; [3]) | Crabgrass plant response rating (crabgrass; [5]) | Crabgrass plant response rating (crabgrass; [6]) | Plant response rating, Crabgrass (crabgrass; [7]) | Plant response rating, Crabgrass (crabgrass; [8]) | Plant response rating, Wheat (wheat; [1]) | Wheat plant response rating (wheat; [2]) | Wheat plant response rating (wheat; [5]) | Wheat plant response rating (wheat; [6]) | Plant response rating, Wheat (wheat; [7]) | Plant response rating, Wheat (wheat; [8]) | further results
1 | CC(C)N(C(=O)n1oc(=O)n(CC(=O)C2CCC2)c1=O)c1ccc(Cl)cc1 [Compound 643] | 0 | 0 | 0 | 0 | 0 | 0 | 0 | 0 | 0 | 0 | 0 | 3 | 9 | 10 | 0 | 0 | 0 | 0 | 0 | 0 | Plant response rating, Cocklebur (cocklebur; [4]): 0; Plant response rating, Crabgrass (crabgrass; [4]): 6; Wheat plant response rating (wheat; [3]): 0; Plant response rating, Wild oats (wild oat; [1]): 0; Wild oats plant response rating (wild oat; [2]): 1; Wild oats plant response rating (wild oat; [3]): 1; Wild oats plant response rating (wild oat; [5]): 0; Wild oats plant response rating (wild oat; [6]): 0; Plant response rating, Wild oats (wild oat; [7]): 0; Plant response rating, Wild oats (wild oat; [8]): 1
2 | CC[C@@H](C)n1c(=O)on(C(=O)N(c2ccc(Cl)cc2)C(C)C)c1=O [Compound 665] | 0 | 0 | 0 | 0 | 0 | 0 | 0 | 1 | 7 | 9 | 6 | 8 | 9 | 10 | 0 | 0 | 0 | 3 | 4 | 4 | Cocklebur plant response rating (cocklebur; [9]): 2; Crabgrass plant response rating (crabgrass; [9]): 9; Wheat plant response rating (wheat; [9]): 4; Plant response rating, Wild oats (wild oat; [1]): 0; Wild oats plant response rating (wild oat; [2]): 0; Wild oats plant response rating (wild oat; [5]): 3; Wild oats plant response rating (wild oat; [6]): 5; Plant response rating, Wild oats (wild oat; [7]): 7; Plant response rating, Wild oats (wild oat; [8]): 8; Wild oats plant response rating (wild oat; [9]): 5
3 | CC[C@@H](C)n1c(=O)on(C(=O)N(c2ccc(F)cc2F)C(C)C)c1=O [Compound 667] | 2 | 3 | 4 | 0 | 0 | 0 | 0 | 6 | 8 | 9 | 8 | 8 | 10 | 10 | 0 | 0 | 2 | 2 | 5 | 6 | Cocklebur plant response rating (cocklebur; [9]): 5; Crabgrass plant response rating (crabgrass; [9]): 10; Wheat plant response rating (wheat; [9]): 5; Plant response rating, Wild oats (wild oat; [1]): 0; Wild oats plant response rating (wild oat; [2]): 4; Wild oats plant response rating (wild oat; [5]): 4; Wild oats plant response rating (wild oat; [6]): 8; Plant response rating, Wild oats (wild oat; [7]): 8; Plant response rating, Wild oats (wild oat; [8]): 10; Wild oats plant response rating (wild oat; [9]): 6
